Measurements: patent publication US11447533B2, “Antimicrobial and anticancer peptides and conjugates and compositions, methods, articles and kits relating thereto” (George Mason Research Foundation, Inc., priority 2018, dated 2022)

Columns and labels:
[1] = test system: primary lung epithelium cells; experiment: Cytotoxicity (Alamar blue); type: cell-based, human; conditions: ~16 hours (overnight), reduced serum conditions
Description: FIGS. 11A-11B are graphs showing cytotoxicity against primary lung epithelium cells in serum-free condition. Cells were seeded in complete growth medium (Minimal essential medium supplemented with 10% fetal bovine serum) at near-confluence into a 96-well plate and allowed to settle for 24-hours. Media was then replaced to OptiMEM I reduced serum medium containing peptide or vehicle alone (DBPS) and cells were incubated overnight (16 hours). A resazurin based dye (Alamar blue) was added directly to media and conversion of resazurin to resorufin was evaluated following two hours. % Survival represents the proportion of viable cells in peptide treated cells relative to cells treated with vehicle alone. […] Each peptide was tested in triplicate.
FIG. 12 is a graph showing comparison of toxicities against Lung Primary Epithelial cells and Lung Cancerous Epithelial Cells, derived from H358 cell-line. […] Each peptide was tested in triplicate.
Cytotoxicity. Cells were seeded in complete growth medium (Minimal Essential Medium, MEMα, supplemented with 10% Fetal Bovine Serum) into a culture-treated 96-well plate at a density of 25000 cells per well. After 24 hours, culture media was aspirated and replaced with media containing the selected peptide. No-serum experiments were conducted in Opti-MEM I reduced serum media (ThermoFisher, 31985062) and 10% serum experiments were performed in complete growth medium. In all cases, DBPS was used as a vehicle only control and buffer to serially dilute the peptides. After exposure to the peptides or vehicle-alone for the defined period, Alamar blue dye (resazurin) was added directly to the media and allowed to incubate for two hours. Following incubation, A570/A600 measurements were made to calculate reduction of resazurin dye to resorufin. A ratio of reduction in treated versus untreated cells was calculated in order to determine overall cell viability. The human cells were always maintained in a 37° C. incubator under 5% CO2.

[2] = Endotoxin binding: competitive displacement of BODIPY TR-Cadaverine from LPS; parameters: species or system Escherichia coli; conditions: 5 μM peptide, 10 μM BC, 10 μg/mL LPS, low ionic-strength 10 mM Na-PO4
Description: (§1) FIGS. 2A-2B are graphs showing endotoxin binding. The figures depict the competitive displacement of BC from LPS/LTA by the peptides. 5 μM of each peptide was incubated with 10 μM BC and 10 μg/mL LPS from E. coli (0111:B4) or LTA from S. aureus. Fluorescence intensity was measured at excitation=580 nm and emission=620 nm. 10 μM BC without endotoxin was used as 100% displacement while 10 μM BC with 10 μg/mL LPS/LTA without any peptide as 0% displacement and the % displacement of BC by each peptide was calculated accordingly. […] had been used as a positive control. The horizontal dotted line coincides with the % displacement of BC by ATRA1 on the y-axis.
(§2) FIGS. 6A-6B are graphs showing endotoxin (LPS (FIG. 6A) and LTA (FIG. 6B)) binding. Competitive displacement of BC from LPS/LTA. In each case, 5 μM peptide was incubated with 10 μM BC and 10 μg/mL LPS from E. coli (0111:B4) or LTA from S. aureus. Fluorescence intensity was measured using excitation=580 nm and emission=620 nm. As a positive control 10 μM BC without endotoxin was used as a reference for 100% displacement while 10 μM BC with 10 μg/mL LPS/LTA without any peptide as a negative control and a reference for 0% displacement. These controls were used to calculate % BC displacement for each peptide.
(§3) Endotoxin Binding. The binding of endotoxin (LPS/LTA) was evaluated using a fluorogenic conjugateBODIPY TR-Cadaverine (BC). BC binds endotoxin loses its fluorescence. The peptide competitively displaces BC from endotoxin and the fluorescence is reestablished. Competitive inhibition of endotoxin-BC binding was utilized due to presence of peptides already in complexion with endotoxin. 25 μL of 20 μM of peptides in 10 mM Na—PO4 buffer were incubated with 25 μL of LPS (40 μg/mL) or LTA (40 μg/mL) for 15 min and then added with 50 μL of BC (20 uM). Peptides bind to LPS or LTA and competitively prevents BC bind to the endotoxin. BC loses its fluorescence on binding to endotoxin. The fluorescence intensity of the unbound BC was measured at excitation=580 nm and emission=620 nm.
(§4) BC contains two functional moieties: BODIPY (boron-dipyrromethene) and cadaverine connected via a carboxamide. BODIPY is the fluorophore of BC and fluoresces in the free state in solution but loses fluorescence when bound to LPS/LTA. The competitive displacement of BC from LPS/LTA by AMPs and thus regeneration of the fluorescence has frequently been used to estimate the binding strength of AMPs with LPS/LTA. In the present studies, 5 μM of each peptide was used to displace BC from LPS/LTA. […] Such observation contradicts the initial assumption that substitution of Lys with arginine would result in increased efficiency of LPS binding. However, with sequential substitutions of Lys with arginine, starting with ATRA1-AR, peptide variants show increased LPS binding with each additional arginine substitution. In terms of LPS binding: ATRA1-AR<ATRA1-AR2<ATRA1-AR3. In ATRA1-R3, the lysine residues at 9th, 5th and 1st positions of ATRA1 were substituted with arginine. In ATRA1-R6 all of the lysine residues were replaced with arginine.

[3] = Endotoxin binding: competitive displacement of BODIPY TR-Cadaverine from LTA; parameters: species or system Staphylococcus aureus; conditions: 5 μM peptide, 10 μM BC, 10 μg/mL LTA, 10 mM Na-PO4
Description: as §1, §2, §3, §4

E. coli ATCC 25922 = experiment: Antimicrobial efficacy (resazurin virtual colony count); type: cell-based, Escherichia coli; conditions: PBS (high / physiologically relevant ionic strength), pH 7.4
Description: Antimicrobial Studies. The phosphate buffers used for antimicrobial assays were supplemented with non-nitrogenous energy source, 0.1% (w/v) glucose. To conduct antimicrobial assays, bacterial strains were first suspended in respective buffers. E. coli (ATCC 25922) and B. cereus (ATCC 11778) were grown in MHB II up to OD600 nm˜1 and stored as frozen stock in 20% glycerol at −80° C. Occasionally they were thawed and enumerated by serial dilution and spreading on MHB II agar plates. The concentrations of the frozen stocks of E. coli and B. cereus strains were 1.0-1.1*10^8 CFU/mL with OD600 nm˜0.8. In case of other bacterial strains, they were grown on the days of experiment up to OD600 nm˜1-1.5 and then adjusted to OD600 nm˜0.8. The growth media of the drug-resistant bacterial strains were supplemented with few of the respective antibiotics against which they are resistant. 200 μL of the 0.8 OD600 nm culture were added to 10 mL of the respective buffer to obtain a suspension which was used to incubate with equal volumes of peptide solution in the same buffer.
Antimicrobial assays in different phosphate buffers and serum were conducted by adapting, with necessary modifications a fast high-throughput method based on Virtual Colony Count technique and later modified by incorporating the use of resazurin. At first serial dilution of a microbial strain in respective buffer was poured in the wells of 96 well polypropylene microplate and was then added with same volume of 2× MHB II supplemented with 80 μg/mL resazurin and incubated at 35° C. in a Gemini EM Microplate Reader (Molecular Devices) overnight with intermittent shaking. As the microbe grows it reduces non-fluorescent resazurin to fluorescent resorufin and the fluorescent intensity of each well were measured (excitation=570 nm, emission=590 nm) each 5 min for 15 hours. The time (t, min) to reach a certain fluorescence (RFU=20000 with respect to the starting fluorescence) was correlated with the initial bacterial concentration (in CFU/mL) in the particular well to obtain a calibration plot of the form: Log([Bacteria],CFU/mL)=b+m*t Equation 4: […]
To obtain antimicrobial efficacy of the peptides, 50 μL of serially diluted peptide in a buffer was incubated with 50 μL microbial suspension in the same buffer for 3 hours in black polypropylene 96 well plate. After incubation the wells were added with 100 μL of 2× MHB II supplemented with 80 μg/mL resazurin and then incubated with continuous fluorescence reading for overnight time period as described earlier. The surviving microbial population (CFU/mL) in each well were calculated by first finding the time to reach a fluorescence of RFU=20000 and the correlation (4) for the specific microbial strain and buffer. % Survival represents the proportion of viable cells in peptide treated cells relative to cells treated with the respective buffer alone. Equation 5: […]
Finally, the antimicrobial effectiveness of each peptide against the particular microbial strain in the specific buffer was determined by plotting % microbial survival as a function of the log of the concentration of the peptide and fitting the resulting data to a variable-slope sigmoidal regression model (equation 6). In this equation, log(EC50) represents the log of the concentration of the peptide required to kill half of the microbial population, where Smin and Smax correspond to the minimal and maximal microbial survival values (respectively), and H, Hill slope, is the parameter defining the steepness of the transition slopes of sigmoidal survival curves. % Microbial survival=Smin+(Smax−Smin)/(1+10^log(EC^50^)-log[peptide]*H) Equation 6: […]
The antimicrobial efficacies of the peptides were first tested against the model Gram-negative bacteria, E. coli ATCC 25922, in different phosphate buffers having varied ionic strengths and compositions. The phosphate buffers that were used included 10 mM sodium phosphate (calculated ionic strength˜25 mM), PBS and DPBS. […]

## CC[C@H](C)[C@H](NC(=O)CN)C(=O)NCC(=O)N[C@@H](C)C(=O)N[C@H](C(=O)N[C@@H](CC(C)C)C(=O)N[C@@H](CCCCN)C(=O)N[C@H](C(=O)N[C@@H](CC(C)C)C(=O)N[C@H](C(=O)N[C@H](C(=O)NCC(=O)N[C@@H](CC(C)C)C(=O)N1CCC[C@H]1C(=O)N[C@@H](C)C(=O)N[C@@H](CC(C)C)C(=O)N[C@H](C(=O)N[C@@H](CO)C(=O)N[C@@H](Cc1c[nH]c2ccccc12)C(=O)N[C@H](C(=O)N[C@@H](CCCCN)C(=O)N[C@@H](CCCNC(=N)N)C(=O)N[C@@H](CCCCN)C(=O)N[C@@H](CCCNC(=N)N)C(=O)N[C@@H](CCC(N)=O)C(=O)N[C@@H](CCC(N)=O)C(N)=O)[C@@H](C)CC)[C@@H](C)CC)[C@@H](C)O)[C@@H](C)O)C(C)C)C(C)C [melittin]
[1]
  cytotoxicity, in words: killed the cells at the highest degree

## KKAKKFFKKLK (SEQ ID NO: 5) [ATRA1-AK]
[2]
  LPS binding (BC displacement), in words: highest LPS binding among all the peptides
[3]
  LTA binding (BC displacement), in words: highest LTA binding
E. coli ATCC 25922
  antimicrobial efficacy, in words: lost activity in PBS
